# Experimental data reported in PubChem BioAssay (NCI).
#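 Five concentrations, 48 hours, 96-well plates. At the GI50, growth is halved. The concentration for full growth arrest is given as TGI.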
# How the values were obtained:
# Test in all cases: NCI anticancer screen, dose series, 48 h
# [1] = test system: 786-0 renal
# [2] = test system: A498 renal
# [3] = test system: A549 NSCLC
# [4] = test system: ACHN renal
# [5] = test system: BT-549 breast
# [6] = test system: CAKI-1 renal
# [7] = test system: CCRF-CEM leukemia
# [8] = test system: COLO 205 colon
# [9] = test system: DU-145 prostate
# [10] = test system: EKVX NSCLC
# [11] = test system: HCC-2998 colon
# [12] = test system: HCT-116 colon
# [13] = test system: HCT-15 colon
# [14] = test system: HL-60(TB) leukemia
# [15] = test system: HOP-62 NSCLC
# [16] = test system: HOP-92 NSCLC
# [17] = test system: HS 578T breast
# [18] = test system: HT29 colon
# [19] = test system: IGROV1 ovarian
# [20] = test system: K-562 leukemia
# [21] = test system: KM12 colon
# [22] = test system: LOX IMVI melanoma
# [23] = test system: M14 melanoma
# [24] = test system: MALME-3M melanoma
# [25] = test system: MCF7 breast
# [26] = test system: MDA-MB-231 breast
# [27] = test system: MDA-MB-435
# [28] = test system: MOLT-4 leukemia
# [29] = test system: NCI-H226 lung
# [30] = test system: NCI-H23 lung
# [31] = test system: NCI-H460 lung
# [32] = test system: NCI-H522 lung
# [33] = test system: NCI/ADR-RES ovarian
# [34] = test system: OVCAR-3 ovarian
# [35] = test system: OVCAR-4 ovarian
# [36] = test system: OVCAR-5 ovarian
# [37] = test system: OVCAR-8 ovarian
# [38] = test system: PC-3 prostate
# [39] = test system: RPMI-8226 leukemia
# [40] = test system: RXF 393 renal
# [41] = test system: SF-268 CNS
# [42] = test system: SF-295 CNS
# [43] = test system: SF-539 CNS
# [44] = test system: SK-MEL-2 melanoma
# [45] = test system: SK-MEL-28 melanoma
# [46] = test system: SK-MEL-5 melanoma
# [47] = test system: SK-OV-3 ovarian
# [48] = test system: SN12C renal
# [49] = test system: SNB-19 CNS
# [50] = test system: SNB-75 CNS
# [51] = test system: SR leukemia
# [52] = test system: SW-620 colon
# [53] = test system: T-47D breast
# [54] = test system: TK-10 renal
# [55] = test system: U251 CNS
# [56] = test system: UACC-257 melanoma
# [57] = test system: UACC-62 melanoma
# [58] = test system: UO-31 renal
compound,measurement,setting,value
N#C/C(=C\c1c(-c2ccccc2)[nH]c2ccccc12)S(=O)(=O)c1ccccc1,GI50,[1],8.46 µM
same,TGI,[1],> 100 µM
same,GI50,[2],7.6 µM
same,TGI,[2],> 58.7 µM
same,GI50,[3],3.74 µM
same,TGI,[3],> 100 µM
same,GI50,[4],6.65 µM
same,TGI,[4],75 µM
same,GI50,[5],10 µM
same,TGI,[5],> 56.9 µM
same,GI50,[6],5.48 µM
same,TGI,[6],> 63 µM
same,GI50,[7],2.38 µM
same,TGI,[7],18.4 µM
same,GI50,[8],1.38 µM
same,TGI,[8],17 µM
same,GI50,[9],2.4 µM
same,TGI,[9],20.1 µM
same,GI50,[10],5.49 µM
same,TGI,[10],> 64.8 µM
same,GI50,[11],10.9 µM
same,TGI,[11],34.3 µM
same,GI50,[12],1.72 µM
same,TGI,[12],> 76.6 µM
same,GI50,[13],1.07 µM
same,TGI,[13],34.6 µM
same,GI50,[14],1.27 µM
same,TGI,[14],5.34 µM
same,GI50,[15],8.06 µM
same,TGI,[15],> 100 µM
same,GI50,[16],8.88 µM
same,TGI,[16],69.8 µM
same,GI50,[17],8.76 µM
same,TGI,[17],> 26.8 µM
same,GI50,[18],0.594 µM
same,TGI,[18],> 41.5 µM
same,GI50,[19],3.28 µM
same,TGI,[19],25.9 µM
same,GI50,[20],0.346 µM
same,GI50,[21],0.625 µM
same,TGI,[21],13.9 µM
same,GI50,[22],4.47 µM
same,TGI,[22],25.5 µM
same,GI50,[23],2.66 µM
same,TGI,[23],38.2 µM
same,GI50,[24],6.77 µM
same,TGI,[24],> 55.8 µM
same,GI50,[25],2.15 µM
same,TGI,[25],18.4 µM
same,GI50,[26],3.55 µM
same,TGI,[26],33.7 µM
same,GI50,[27],0.287 µM
same,TGI,[27],3.77 µM
same,GI50,[28],1.68 µM
same,TGI,[28],> 100 µM
same,GI50,[29],4.06 µM
same,TGI,[29],37.8 µM
same,GI50,[30],4.26 µM
same,TGI,[30],> 58.5 µM
same,GI50,[31],2.73 µM
same,TGI,[31],18.3 µM
same,GI50,[32],4.51 µM
same,TGI,[32],25.5 µM
same,GI50,[33],1.06 µM
same,TGI,[33],43.4 µM
same,GI50,[34],1.14 µM
same,TGI,[34],4.41 µM
same,GI50,[35],5.47 µM
same,TGI,[35],> 100 µM
same,GI50,[36],18.2 µM
same,TGI,[36],98.1 µM
same,GI50,[37],5.82 µM
same,TGI,[37],> 78 µM
same,GI50,[38],3.34 µM
same,TGI,[38],> 53.9 µM
same,GI50,[39],0.557 µM
same,TGI,[39],6.88 µM
same,GI50,[40],3.43 µM
same,TGI,[40],> 27.4 µM
same,GI50,[41],3.4 µM
same,TGI,[41],20.5 µM
same,GI50,[42],2.21 µM
same,TGI,[42],14.6 µM
same,GI50,[43],2.48 µM
same,TGI,[43],9.51 µM
same,GI50,[44],12.5 µM
same,TGI,[44],45.3 µM
same,GI50,[45],5.97 µM
same,TGI,[45],28.8 µM
same,GI50,[46],1.82 µM
same,TGI,[46],11.5 µM
same,GI50,[47],6.39 µM
same,TGI,[47],> 71.5 µM
same,GI50,[48],5.24 µM
same,TGI,[48],71.8 µM
same,GI50,[49],7.08 µM
same,TGI,[49],> 88.2 µM
same,GI50,[50],1.67 µM
same,TGI,[50],29.4 µM
same,GI50,[51],17.3 µM
same,TGI,[51],> 100 µM
same,GI50,[52],0.544 µM
same,TGI,[52],20.5 µM
same,GI50,[53],3.82 µM
same,TGI,[53],33.8 µM
same,GI50,[54],5.08 µM
same,TGI,[54],> 54.3 µM
same,GI50,[55],2.49 µM
same,TGI,[55],20.1 µM
same,GI50,[56],17.9 µM
same,TGI,[56],56.2 µM
same,GI50,[57],2.38 µM
same,TGI,[57],24.9 µM
same,GI50,[58],6.54 µM
same,TGI,[58],> 61.7 µM
